{"source": "patent US6551390B1", "about": "“Composition containing two different disazodyestuffs useful for ink jet recording” (Avecia Limited, priority 1998, dated 2003)", "assay": "Aqueous solubility of dyes and dye composition", "format": "physicochemical", "settings": "aqueous solubility at 20° C. and pH 9.5", "method": "The aqueous solubility of Composition (1), Dye (A) and Dye (B) at 20° C. and pH 9.5 is: […]", "data": [{"smiles": "COc1cc(N=Nc2cccc(S(=O)(=O)O)c2)ccc1NC(=O)Nc1ccc(N=Nc2cccc(S(=O)(=O)O)c2)cc1OC", "note": "[Dye (A), CI Direct Yellow 132]", "values": [{"measurement": "Solubility (%)", "value": 10.7, "unit": "%"}]}]}
